Assay results published in publication PMC5595280, “Cytotoxicity and anti-tumor effects of new ruthenium complexes on triple negative breast cancer cells” (PLoS ONE, 2017).

Experiments:
[1] = tested on: MCF-10A cells; assay: MTT cell proliferation assay; assay type: cell-based, human; settings: 24 h of incubation, read-out: IC50 ±SEM MCF-10A
Method: (§1) MDA-MB-231 human breast tumor cells and MCF7 human breast tumor cells, obtained from Rio de Janeiro Cell Bank, were maintained at 37°C in 5% CO2 in DMEM medium containing fetal bovine serum (FBS) 10% (Vitrocell). MCF-10A, a non-tumor breast cell line, obtained from Rio de Janeiro Cell Bank, was cultivated in DMEM/F12 medium containing horse serum (HS) 5%, EGF (0.02 mg/mL); hydrocortisone (0.05 mg/mL); cholera toxin (0.001 mg/mL) and insulin (0.01 mg/mL). Both media contained penicillin (100 UI/mL), streptomycin ([…]) and L-glutamine (2 mM).
(§2) Proliferation assays were performed as described earlier. Briefly, cells lines were prepared in a concentration of 1x10^4 cells/100 μL, in complete medium (with 10% FBS), and plated on sterile 96-well plates for 24 h. The culture medium was removed from the wells and a new one, supplemented with 10% FBS and containing different concentrations of (1) [Ru(SO4)(dppb)(bipy)] (2) [Ru(CO3)(dppb)(bipy)], (3), [Ru(C2O4)(dppb)(bipy)], or (4) [Ru(CH3CO2)(dppb)(bipy)]PF6, was added to the wells. Cells were incubated for 24 h under the same conditions as described above. Cell proliferation assay was performed in comparison with untreated control. After incubation, the culture medium of each well was removed and a solution containing MTT (1 mg/mL) was added (100 μL/well). The plates were then kept at 37°C for 4 h and the formed crystals were dissolved in DMSO. The absorbance was read on an ELISA plate reader at a wavelength of 540 nm. […] The selectivity index (SI) was calculated as the ratio IC50 (MCF-10A) / IC50 (MDA-MB-231).
(§3) Each experiment was repeated three times in triplicate and a standard error mean was calculated. Shapiro-Wilk’s test was used to verify data normality. As normal distribution was present, the results were compared statistically with a one-way or two-way analysis of variance (ANOVA). […] The data were analysed and IC50 calculations were made using Hill’s equation in the GraphPad Prism software (version 6.05).

[2] = tested on: MDA-MB-231 cells; assay: MTT cell proliferation assay; assay type: cell-based, human; settings: 24 h of incubation, read-out: IC50 ±SEM MDA-MB-231
Method: as §1, §2, §3

[3] = tested on: MCF-7 cells; assay: MTT cell proliferation assay; assay type: cell-based, human; settings: 24 h of incubation, read-out: IC50 ±SEM MCF-7
Method: as §1, §2, §3

[4] = molecular target: HSA (Homo sapiens, UniProt P02768); assay: HSA tryptophan fluorescence quenching; assay type: binding
Chain of HSA (P02768 25-609): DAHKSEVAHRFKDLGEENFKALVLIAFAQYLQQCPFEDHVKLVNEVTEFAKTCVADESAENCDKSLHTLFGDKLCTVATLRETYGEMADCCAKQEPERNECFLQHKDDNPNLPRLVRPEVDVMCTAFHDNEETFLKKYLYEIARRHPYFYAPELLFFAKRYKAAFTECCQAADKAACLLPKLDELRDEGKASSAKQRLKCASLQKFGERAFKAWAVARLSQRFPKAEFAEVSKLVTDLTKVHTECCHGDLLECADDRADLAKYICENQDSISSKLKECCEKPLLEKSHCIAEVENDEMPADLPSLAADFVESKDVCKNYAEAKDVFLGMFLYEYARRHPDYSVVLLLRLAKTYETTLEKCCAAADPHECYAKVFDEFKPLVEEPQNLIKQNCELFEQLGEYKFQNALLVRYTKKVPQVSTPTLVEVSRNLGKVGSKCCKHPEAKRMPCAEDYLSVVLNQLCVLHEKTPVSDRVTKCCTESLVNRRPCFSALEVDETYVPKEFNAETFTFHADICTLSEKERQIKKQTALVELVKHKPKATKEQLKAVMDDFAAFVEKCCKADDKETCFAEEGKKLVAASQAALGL
Method: For fluorescence measurements, the HSA concentration in Tris–HCl buffer was kept constant in all the samples, while the complex concentration was increased from 0.50 to 50 μM, and quenching of the emission intensity of the HSA tryptophan residues at 305 nm (excitation wavelength 270 nm) was monitored at different temperatures (25°C and 37°C). The experiments were carried out in triplicate and analysed using the classical Stern-Volmer equation. The binding constant (Kb) and number of complexes bound to HSA (n) were determined by plotting the double log graph of the fluorescence data using: log [(F0-F)/F] = log Kb + nlog[Q]. The thermodynamic parameter (ΔH) was calculated from equation: ln (K2/K1) = [(1/T1)-(1/T2)]ΔH/R, where K1 and K2 are the binding constants at temperatures T1 and T2, and R is the gas constant. Furthermore, the change in free energy (ΔG) and entropy (ΔS) were calculated from the following equation: ΔG = -RT lnK = ΔH − TΔS.
Human serum albumin (HSA) is the most abundant protein in the blood and cerebrospinal fluid and plays a fundamental role in the distribution of essential transition metal ions in the human body. Moreover, HSA is an important physiological transporter of the essential metal ions Cu^2+, and Zn^2+ in the bloodstream. […] The fluorescence spectrum is essentially that of tryptophan residue; contribution of tyrosine is relatively minor. In order to determine the protein binding affinity of complexes (1–4), tryptophan emission quenching experiments were carried out by adding the complexes in increasing concentration (0–50 μM) to HSA at two different temperatures and following the decrease in fluorescence intensities (Fig 6D). The results point out a good linearity at the two different temperatures. The binding constants, KSV, calculated from the Stern-Volmer equation are presented on Table 2.

[5] = tested on: MDA-MB-231 cells; assay: Boyden chamber migration assay; assay type: cell-based, human; settings: 5, 10 and 20 μM, 22 h
Method: Cell migration was also assessed in a chemotactic assay using 24 well Boyden chambers (BD Biosciences) as described earlier. MDA-MB-231 (0.5 x 10^5/350 μL) cells, incubated or not with complex (4) 5, 10 and 20 μM were seeded on the upper chamber in a DMEM incomplete medium (without FBS). In the lower chamber DMEM medium supplemented with 10% FBS was added. Cells were allowed to migrate for 22 h at 37°C and 5% CO2 in a humidified environment. Then, cells that remained in the upper chamber were removed using a cotton swab. Cells that migrated to the other side of the upper chamber membrane were fixed with methanol and stained with 1% toluidine blue. Migrated cells were quantified by manual counting and inhibition ratio was expressed as % of control.

[6] = tested on: MDA-MB-231 cells; assay: Wound healing migration assay; assay type: cell-based, human; settings: 5, 10 and 20 μM, 24 and 48 h
Method: The effects of complex (4) on tumor cell migration was investigated by two methods, wound healing and transwell assays using Boyden chambers. For wound healing, MDA-MB-231 cells (2 x10^5/mL) were plated in 12-wells plates and incubated properly until the culture reached 100% of confluence. Afterwards, a straight scratch was made with a sterile pipette tip and cells were washed with culture medium to remove unbound cells and debris. Cells were incubated with complex (4) 5, 10 and 20 μM for 24 and 48 h. Cells were viewed using an inverted microscope (Nikon, T5100) at 40× total magnification and images were captured (Moticam, 1000-S camera) at 0 h, 24 h and 48 h. Closure area of migrating cells was measured using Image J software, and the percentage of wound closure was calculated, comparing time zero and 48 h, using a formula from Yue and co-workers.
% wound closure=(At=0h−At=Δh)/(At=0h)x (100)

Question: What does the source list for `CC(=O)[O-].F[P-](F)(F)(F)(F)F.[Ru+2].c1ccc(-c2ccccn2)nc1.c1ccc(P(CCCCP(c2ccccc2)c2ccccc2)c2ccccc2)cc1` [Complex (4), [Ru(CH3CO2)(dppb)(bipy)]PF6]?
Answer: IC50 [1]: 48.89 ± 0.09 µM; IC50 [2]: 31.16 ± 0.04 µM; IC50 [3]: > 200 µM; Kq (HSA) ([4]; T 298): 4.95e+13 M⁻¹ s⁻¹; Ksv (HSA) ([4]; T 298): 4.74 ± 0.70 x10^4 M^-1; n (number of binding sites, HSA) ([4]; T 298): 1.20; ΔS (HSA) ([4]; complex-HSA system): 110.13 J.mol^-1K; ΔH (HSA) ([4]; from binding constants at 298 and 310): 1.50 kJ/mol; effect on cell migration (Boyden chamber) [5]: inhibited MDA-MB-231 cell migration in a concentration dependent fashion; effect on cell migration (wound healing) [6]: inhibited MDA-MB-231 cell migration in a concentration dependent fashion
